Results from patent publication US10449216B2, “Modulating drug effects against metabotropic glutamate receptor with extracellular calcium” (GEORGIA STATE UNIVERSITY RESEARCH FOUNDATION, INC., priority 2013, dated 2019).

Legend:
mGluR1 = mGluR1 (Rattus norvegicus, UniProt P23385); details: mGluR1, Sp. Rn; cited from earlier work
mGluR5 [1] = biological target: mGluR5 (Rattus norvegicus, UniProt P31424); details: mGluR5, Sp. Rn; cited from earlier work
WT mGluR1α = biological target: T1, WT mGluR1α (Rattus norvegicus, UniProt P23385); assay: Single cell Fura-2 [Ca^2+]i response in HEK293 cells transiently transfected with WT mGluR1α; format: cell-based
T1 construct: expressed in transfected cells; host or cells: HEK293
Procedure: The methods for measuring [Ca^2+]i responses were as described above. In the presence of (s)-MCPG, the cells were incubated with 0.5 mM (s)-MCPG in a saline buffer for 30 more minutes after Fura-2 loading.
Fura-2AM was used for monitoring [Ca^2+]i in real time as described above. […] Cells loaded with Fura-2AM were mounted onto a chamber perfused with saline buffer.

mGluR5 [2] = biological target: mGluR5 (Homo sapiens, UniProt P41594); details: mGluR5, Sp. Hs; cited from earlier work
Sequence of mGluR5 (Homo sapiens, UniProt P41594) (P41594 21-1212): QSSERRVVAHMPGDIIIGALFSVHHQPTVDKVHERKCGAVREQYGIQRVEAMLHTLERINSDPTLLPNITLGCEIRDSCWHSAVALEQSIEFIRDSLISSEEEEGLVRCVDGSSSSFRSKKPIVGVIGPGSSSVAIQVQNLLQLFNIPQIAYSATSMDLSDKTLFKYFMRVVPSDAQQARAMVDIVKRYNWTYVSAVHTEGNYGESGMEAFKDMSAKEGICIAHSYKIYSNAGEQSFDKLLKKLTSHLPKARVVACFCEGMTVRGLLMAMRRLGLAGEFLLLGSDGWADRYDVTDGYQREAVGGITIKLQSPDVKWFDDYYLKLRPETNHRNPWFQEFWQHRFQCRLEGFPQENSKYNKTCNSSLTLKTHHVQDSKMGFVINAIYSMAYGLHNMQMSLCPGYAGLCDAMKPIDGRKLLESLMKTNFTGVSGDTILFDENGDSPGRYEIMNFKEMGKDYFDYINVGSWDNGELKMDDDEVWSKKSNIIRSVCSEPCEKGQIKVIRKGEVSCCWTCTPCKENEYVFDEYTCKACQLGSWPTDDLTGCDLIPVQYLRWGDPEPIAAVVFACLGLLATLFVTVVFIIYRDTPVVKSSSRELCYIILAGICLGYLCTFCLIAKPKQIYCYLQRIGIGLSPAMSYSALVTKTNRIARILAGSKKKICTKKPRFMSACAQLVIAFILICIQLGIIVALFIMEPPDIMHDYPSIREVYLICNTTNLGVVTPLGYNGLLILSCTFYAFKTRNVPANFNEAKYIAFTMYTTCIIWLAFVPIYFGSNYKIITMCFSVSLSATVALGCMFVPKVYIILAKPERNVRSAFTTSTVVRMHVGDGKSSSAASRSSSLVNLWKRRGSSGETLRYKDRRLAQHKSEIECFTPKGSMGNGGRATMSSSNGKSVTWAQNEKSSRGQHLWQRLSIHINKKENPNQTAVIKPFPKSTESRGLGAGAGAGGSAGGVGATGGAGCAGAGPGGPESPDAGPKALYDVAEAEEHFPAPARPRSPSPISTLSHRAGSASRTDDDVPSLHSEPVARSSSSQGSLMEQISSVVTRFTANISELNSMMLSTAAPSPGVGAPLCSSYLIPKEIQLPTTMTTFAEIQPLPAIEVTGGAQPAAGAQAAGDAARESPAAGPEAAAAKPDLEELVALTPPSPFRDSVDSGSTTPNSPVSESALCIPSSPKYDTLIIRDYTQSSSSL

Sequence of mGluR1 (P23385 19-1199): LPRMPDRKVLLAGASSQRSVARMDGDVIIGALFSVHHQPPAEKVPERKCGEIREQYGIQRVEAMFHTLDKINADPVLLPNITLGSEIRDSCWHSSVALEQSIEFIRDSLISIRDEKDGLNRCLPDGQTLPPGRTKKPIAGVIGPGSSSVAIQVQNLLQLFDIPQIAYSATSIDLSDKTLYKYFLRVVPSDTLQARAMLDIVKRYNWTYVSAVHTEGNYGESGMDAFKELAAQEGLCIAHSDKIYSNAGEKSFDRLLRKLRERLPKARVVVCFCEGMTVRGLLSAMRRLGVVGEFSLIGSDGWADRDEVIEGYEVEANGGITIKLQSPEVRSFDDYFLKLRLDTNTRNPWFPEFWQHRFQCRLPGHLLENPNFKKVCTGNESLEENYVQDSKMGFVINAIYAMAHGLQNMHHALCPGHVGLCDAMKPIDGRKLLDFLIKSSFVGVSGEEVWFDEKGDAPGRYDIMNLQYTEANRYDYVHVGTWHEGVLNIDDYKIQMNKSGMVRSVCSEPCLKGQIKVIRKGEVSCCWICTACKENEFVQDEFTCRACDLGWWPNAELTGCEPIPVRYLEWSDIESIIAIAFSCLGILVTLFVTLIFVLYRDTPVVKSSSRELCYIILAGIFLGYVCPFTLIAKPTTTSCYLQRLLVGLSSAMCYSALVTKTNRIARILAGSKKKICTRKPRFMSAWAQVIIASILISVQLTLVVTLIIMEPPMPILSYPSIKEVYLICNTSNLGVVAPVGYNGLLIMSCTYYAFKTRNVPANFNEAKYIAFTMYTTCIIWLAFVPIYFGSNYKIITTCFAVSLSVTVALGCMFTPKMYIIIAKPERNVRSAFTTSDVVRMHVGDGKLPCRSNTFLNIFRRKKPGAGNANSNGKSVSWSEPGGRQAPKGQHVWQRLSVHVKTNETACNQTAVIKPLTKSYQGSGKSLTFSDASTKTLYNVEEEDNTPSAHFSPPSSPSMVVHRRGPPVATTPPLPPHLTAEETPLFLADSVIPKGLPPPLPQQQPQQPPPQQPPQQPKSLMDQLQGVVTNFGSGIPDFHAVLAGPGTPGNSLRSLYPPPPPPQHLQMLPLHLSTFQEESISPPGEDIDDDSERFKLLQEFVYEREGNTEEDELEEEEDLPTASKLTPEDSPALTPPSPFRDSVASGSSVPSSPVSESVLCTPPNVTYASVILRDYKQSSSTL
Sequence of mGluR5 (Rattus norvegicus, UniProt P31424) (P31424 21-1203): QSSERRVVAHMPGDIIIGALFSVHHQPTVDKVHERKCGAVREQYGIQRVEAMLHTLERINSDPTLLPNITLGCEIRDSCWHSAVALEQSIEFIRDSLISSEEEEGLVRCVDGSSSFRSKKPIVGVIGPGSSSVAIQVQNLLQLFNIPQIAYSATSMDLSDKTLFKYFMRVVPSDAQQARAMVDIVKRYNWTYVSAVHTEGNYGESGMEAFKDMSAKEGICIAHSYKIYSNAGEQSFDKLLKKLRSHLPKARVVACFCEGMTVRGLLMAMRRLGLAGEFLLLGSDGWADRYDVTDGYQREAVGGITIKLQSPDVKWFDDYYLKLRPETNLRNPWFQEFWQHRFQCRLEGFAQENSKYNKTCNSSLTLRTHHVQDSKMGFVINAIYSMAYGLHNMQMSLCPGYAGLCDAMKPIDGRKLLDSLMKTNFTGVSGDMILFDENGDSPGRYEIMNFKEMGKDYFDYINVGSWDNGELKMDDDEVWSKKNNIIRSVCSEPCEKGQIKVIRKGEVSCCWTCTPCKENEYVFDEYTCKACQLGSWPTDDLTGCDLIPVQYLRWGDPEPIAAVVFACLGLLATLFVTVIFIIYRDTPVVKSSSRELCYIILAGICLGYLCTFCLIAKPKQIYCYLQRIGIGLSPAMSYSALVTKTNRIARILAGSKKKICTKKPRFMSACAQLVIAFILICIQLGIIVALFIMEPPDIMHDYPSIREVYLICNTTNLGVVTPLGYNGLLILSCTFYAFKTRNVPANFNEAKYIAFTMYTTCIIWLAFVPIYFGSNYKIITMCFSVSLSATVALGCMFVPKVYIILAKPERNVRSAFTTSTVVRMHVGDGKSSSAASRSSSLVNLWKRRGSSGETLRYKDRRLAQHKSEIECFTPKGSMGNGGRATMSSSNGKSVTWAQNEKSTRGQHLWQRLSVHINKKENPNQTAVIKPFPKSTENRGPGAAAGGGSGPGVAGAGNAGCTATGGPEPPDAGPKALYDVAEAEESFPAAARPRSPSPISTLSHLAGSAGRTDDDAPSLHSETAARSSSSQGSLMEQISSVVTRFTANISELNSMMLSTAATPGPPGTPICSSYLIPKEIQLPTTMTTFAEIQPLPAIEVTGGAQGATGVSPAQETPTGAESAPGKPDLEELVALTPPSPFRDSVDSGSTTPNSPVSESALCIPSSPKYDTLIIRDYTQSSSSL
T1 sequence (P23385 19-1199): as the sequence (P23385 19-1199) above

SMILES	Affinity (pKi) (mGluR1)	Affinity (pIC50) (mGluR5 [1])	Affinity (pIC50) (mGluR1)	also measured
NC(C(=O)O)c1cc(O)cc(O)c1 (centres unmarked) [3,5-DHPG]	5.8 pKi	5.4	–	–
CCCOC(=O)c1[nH]c(C)c(C(=O)OC(C)C(C)(C)C)c1C (centres unmarked) [3,5-dimethyl PPP]	–	–	7.8 pIC50	–
Cc1cc(C(=O)O)sc1C(N)C(=O)O (centres unmarked) [3-MATIDA]	–	–	5.2 pIC50	–
N[C@@]1(C(=O)O)CC[C@@H](C(=O)O)C1 [(1S,3R)-ACPD]	–	5.7	–	–
N[C@H](C(=O)O)c1cccc(O)c1 [(S)-3HPG]	–	5	4.9 pIC50	–
N[C@H](C(=O)O)c1ccc(C(=O)O)cc1 [(S)-4CPG]	5.4 pKi	4.6	–	–
N[C@H](C(=O)O)C12CC(C(=O)O)(C1)C2 [(S)-(+)-CBPG]	–	–	4.2 pIC50	–
N[C@H](C(=O)O)C12CC(c3nn[nH]n3)(C1)C2 [(S)-TBPG]	–	–	4.2 pIC50	–
C[C@@](N)(C(=O)O)c1ccc(C(=O)O)cc1 [(s)-MCPG, (S)-α-Methyl-4-carboxyphenylglycine]	3.8 pKi	3.7	–	Inhibition of activation of mGluR1α by L-Glu (WT mGluR1α; 1.5 mM (s)-MCPG, 5 μM L-Glu): entirely blocks; Inhibition of responsiveness of mGluR1α to [Ca^2+]o (WT mGluR1α; 2.0 mM MCPG, 5 mM [Ca^2+]o): does not completely inhibit
CN(C)c1nc(N)c(C(=O)Nc2ccccn2)nc1Cl [ACDPP]	–	–	–	Affinity (pIC50) (mGluR5 [2]): 6.9 pIC50
O=C(c1ccc(F)cc1)N1CCC[C@H](c2nc(-c3ccc(F)cc3)no2)C1 [ADX-47273]	–	6.5	–	–
C=C1C[C@@H]2COC(=O)[C@]2(Cc2ccc3ccccc3c2)C1 [BAY 367620]	–	–	6.8-8.0 pIC50	–
COc1cc(-c2nc3ccccc3o2)ccc1CC#N [BOMA]	–	–	–	Affinity (pKi) (mGluR5 [2]): 8.5 pKi
NC(C(=O)O)c1cc(O)ccc1Cl (centres unmarked) [CHPG]	–	–	–	Affinity (pIC50) (mGluR5 [2]): 3.4 pIC50
N[C@H](C(=O)O)C1[C@@H](C(=O)O)[C@@H]1C(=O)O (some centres unmarked) [DCG-IV]	4.1 pKi	4.7	–	–
Fc1cccc(/C=N/N=C/c2cccc(F)c2)c1 [DFB]	–	–	–	Affinity (pIC50) (mGluR5 [2]): 5.6-8.5 pIC50
CCCOC(=O)c1[nH]c(C)c(C(=O)O[C@@H](C)C(C)(C)C)c1C [DM-PPP]	–	–	7.8 pIC50	–
CCn1c(C)nc(N2CCc3ccccc3CC2)c(C#N)c1=O [EM-TBPC]	–	–	6.9 pIC50	–
N[C@H](C(=O)O)[C@H]1C[C@@H]1C(=O)O [L-CCG-I]	5.6 pKi	5.8	–	–
Cc1nc(C#Cc2cccc(C#N)c2)cs1 [MTEB]	–	–	–	Affinity (pIC50) (mGluR5 [2]): 8.7 pIC50
O=C(NC12CC3CC(CC(C3)C1)C2)c1cnc2ccccc2n1 [NPS2390]	8.9 pKi	–	–	–
CCOC(=O)NC(=O)C(c1ccccc1)c1ccccc1 [Ro01-6128]	7.5-7.7 pKi	–	–	–
Cc1ccc(S(=O)(=O)N2CCC[C@H]2c2ccc(F)cc2)cc1 [Ro67-7476]	7.5-7.9 pKi	–	–	–
Cc1ccc(O)c(N=Nc2ccccc2)n1 [SIB-1757]	–	–	–	Affinity (pIC50) (mGluR5 [2]): 6.0-6.4 pIC50
Cc1cccc(/C=C/c2ccccc2)n1 [SIB-1893]	–	–	–	Affinity (pIC50) (mGluR5 [2]): 5.9-6.5 pIC50
O=C(Nc1cc(-c2ccccc2)nn1-c1ccccc1F)c1ccc([N+](=O)[O-])cc1 [VU-1545]	–	–	–	Affinity (pEC50) (mGluR5 [2]): 8 pEC50
Cc1c(C(=O)N(C)C2CCCCC2)sc2nc3ccc(N)cc3n12 [YM298198]	–	–	7.8 pIC50	–
CN1CC(=O)NC1=NC(=O)Nc1cccc(Cl)c1 [fenobam]	–	–	–	Affinity (pIC50) (mGluR5 [2]): 7.2 pIC50
N[C@H](C(=O)O)c1cc(O)no1 [ibotenate]	5.9-6.4 pKi	5.7	–	–
